According to patent publication US9499537B2, “Antiviral pyrrolopyridine derivatives and method for preparing the same” (KOREA RESEARCH INSTITUTE OF CHEMICAL TECHNOLOGY, priority 2011, dated 2016):

What follows are molecules tested on MT-4 cells (assay: Cytotoxicity test in MT-4 cells (MTT method)). Conditions: human.
Type: cell-based
Method: In order to look into the HIV-1 inhibition effects of the compound of the present invention, an in vitro test for HIV-1 inhibition effects was carried out as follows according to a known method (H. Tanaka et al., J. Med. Chem., 1991, 34, 349). MT-4 cells were used as host cells, and the degree of the compound of the present invention inhibiting the cytotoxicity of the virus-infected MT-4 cells was investigated.
First, MT-4 cells were diffused at a concentration of 1×10^4 cell/well to a culture medium, and HIV-1 was inoculated so that the concentration was 500 TCI50 (concentration at which 50% of the cell is infected)/well. Immediately after the inoculation, the cell dispersion was transferred in 100 μL each to a flat microtiter plate in which the sample of the compound of the present invention was placed. The sample was incubated for approximately for 4 to 5 days at […], and the virus suppression effect was determined using an MTT method. In addition, the cytotoxicity was also determined by measuring the survivability of the experimentally virus-infected cells using an MTT method. As a comparative compound, azidothymidine (AZT) and raltegravir were used.

| SMILES | CC60 (μM) ** : concentration at 50% cell damage with respect to MT-4 cells [µM] |
| --- | --- |
| Cc1nc2c(c(C)c(C)n2CC2CC2)c(-c2ccc(Cl)cc2)c1[C@@H](OC(C)(C)C)C(=O)O [Example 29, (R)-2-tert-butoxy-2-(4-(4-chlorophenyl)-1-(cyclopropylmethyl)-2,3,6-trimethyl-1H-pyrrolo[2,3-b]pyridin-5-yl)acetic acid] | 100 |
| Cc1nc2c(c(C)c(C)n2CCC#N)c(-c2ccc(Cl)cc2)c1[C@H](OC(C)(C)C)C(=O)O [Example 30, (S)-2-Tert-butoxy-2-(4-(4-chlorophenyl)-1-(2-cyanoethyl)-2,3,6-trimethyl-1H-pyrrolo[2,3-b]pyridin-5-yl)acetic acid] | 30.86 |
| Cc1nc2c(c(C)c(C)n2CCC#N)c(-c2ccc(Cl)cc2)c1[C@@H](OC(C)(C)C)C(=O)O [Example 31, (R)-2-tert-butoxy-2-(4-(4-chlorophenyl)-1-(2-cyanoethyl)-2,3,6-trimethyl-1H-pyrrolo[2,3-b]pyridin-5-yl)acetic acid] | 86.73 |
| CCn1c(C)c(C)c2c(-c3ccc(Cl)cc3)c([C@H](OC(C)(C)C)C(=O)O)c(C)nc21 [Example 32, (S)-2-Tert-butoxy-2-(4-(4-chlorophenyl)-1-(ethyl)-2,3,6-trimethyl-1H-pyrrolo[2,3-b]pyridin-5-yl)acetic acid] | 23.48 |
| CCn1c(C)c(C)c2c(-c3ccc(Cl)cc3)c([C@@H](OC(C)(C)C)C(=O)O)c(C)nc21 [Example 33, (R)-2-tert-butoxy-2-(4-(4-chlorophenyl)-1-(ethyl)-2,3,6-trimethyl-1H-pyrrolo[2,3-b]pyridin-5-yl)acetic acid] | 25.5 |
| Cc1nc2c(ccn2C)c(-c2ccc(Cl)cc2)c1[C@H](OC(C)(C)C)C(=O)O [Example 34, (S)-2-Tert-butoxy-2-(4-(4-chlorophenyl)-1,6-dimethyl-1H-pyrrolo[2,3-b]pyridin-5-yl)acetic acid] | 78 |
| COc1cc(Cn2c(C)c(C)c3c(-c4ccc(Cl)cc4)c(C(OC(C)(C)C)C(=O)O)c(C)nc32)cc(Cl)n1 (centres unmarked) [Example 35, 2-Tert-butoxy-2-(4-(4-chlorophenyl)-1-((2-chloro-6-methoxypyridin-4-yl)methyl)-2,3,6-trimethyl-1H-pyrrolo[2,3-b]pyridin-5-yl)acetic acid] | 14.86 |
| Cc1nc2c(c(C)c(C)n2Cc2ccncc2)c(-c2ccc(Cl)cc2)c1[C@H](OC(C)(C)C)C(=O)O [Example 36, (S)-2-Tert-butoxy-2-(4-(4-chlorophenyl)-1-(pyridin-4-ylmethyl)-2,3,6-trimethyl-1H-pyrrolo[2,3-b]pyridin-5-yl)acetic acid] | 24.49 |
| CCn1c(C)c(C)c2c(-c3ccccc3)c(C(OC(C)(C)C)C(=O)O)c(C)nc21 (centres unmarked) [Example 37, 2-Tert-butoxy-2-(1-ethyl-2,3,6-trimethyl-4-phenyl-1H-pyrrolo[2,3-b]pyridin-5-yl)acetic acid] | 17 |
| CCn1c(C)c(C)c2c(-c3ccc(C)cc3)c(C(OC(C)(C)C)C(=O)O)c(C)nc21 (centres unmarked) [Example 38, 2-Tert-butoxy-2-(1-ethyl-2,3,6-trimethyl-4-(para-tolyl)-1H-pyrrolo[2,3-b]pyridin-5-yl)acetic acid] | 40.34 |
| CCn1c(C)c(C)c2c(-c3ccc(F)cc3)c(C(OC(C)(C)C)C(=O)O)c(C)nc21 (centres unmarked) [Example 39, 2-Tert-butoxy-2-(1-ethyl-4-(4-fluorophenyl)-2,3,6-trimethyl-1H-pyrrolo[2,3-b]pyridin-5-yl)acetic acid] | 78.47 |
| CCn1c(C)c(C)c2c(-c3ccc(C#N)cc3)c(C(OC(C)(C)C)C(=O)O)c(C)nc21 (centres unmarked) [Example 40, 2-Tert-butoxy-2-(4-(4-cyanophenyl)-1-ethyl-2,3,6-trimethyl-1H-pyrrolo[2,3-b]pyridin-5-yl)acetic acid] | 91.58 |
| CCn1c(C)c(C)c2c(-c3ccc(OC)cc3)c(C(OC(C)(C)C)C(=O)O)c(C)nc21 (centres unmarked) [Example 41, 2-(Tert-butoxy)-2-(1-ethyl-4-(4-methoxyphenyl)-2,3,6-trimethyl-1H-pyrrolo[2,3-b]pyridin-5-yl)acetic acid] | 31.49 |
| Cc1nc2c(c(C)c(C)n2Cc2cccs2)c(-c2ccc(Cl)cc2)c1[C@H](OC(C)(C)C)C(=O)O [Example 42, (S)-2-(Tert-butoxy)-2-(4-(4-chlorophenyl)-2,3,6-trimethyl-1-(thiophen-2-ylmethyl)-1H-pyrrolo[2,3-b]pyridin-5-yl)acetic acid] | 20.54 |
| Cc1nc2c(c(C)c(C)n2Cc2ccsc2)c(-c2ccc(Cl)cc2)c1[C@H](OC(C)(C)C)C(=O)O [Example 43, (S)-2-(Tert-butoxy)-2-(4-(4-chlorophenyl)-2,3,6-trimethyl-1-(thiophen-3-ylmethyl)-1H-pyrrolo[2,3-b]pyridin-5-yl)acetic acid] | 17.74 |
| Cc1nc2c(c(C)c(C)n2Cc2ccco2)c(-c2ccc(Cl)cc2)c1[C@H](OC(C)(C)C)C(=O)O [Example 44, (S)-2-(Tert-butoxy)-2-(4-(4-chlorophenyl)-1-(furan-2-ylmethyl)-2,3,6-trimethyl-1H-pyrrolo[2,3-b]pyridin-5-yl)acetic acid] | 18.06 |
| Cc1nc2c(c(C)c(C)n2CC2(C#N)CC2)c(-c2ccc(Cl)cc2)c1[C@H](OC(C)(C)C)C(=O)O [Example 47, (S)-2-(tert-butoxy)-2-(4-(4-chlorophenyl)-1-((1-cyanocyclopropyl)methyl)-2,3,6-trimethyl-1H-pyrrolo[2,3-b]pyridin-5-yl)acetic acid] | 16.64 |
| Cc1nc2c(c(C)c(C)n2CC2CCC2)c(-c2ccc(Cl)cc2)c1[C@H](OC(C)(C)C)C(=O)O [Example 48, (S)-2-(Tert-butoxy)-2-(4-(4-chlorophenyl)-1-(cyclobutylmethyl)-2,3,6-trimethyl-1H-pyrrolo[2,3-b]pyridin-5-yl)acetic acid] | 14.22 |
| Cc1nc2c(c(C)c(C)n2CC2CCCC2)c(-c2ccc(Cl)cc2)c1[C@H](OC(C)(C)C)C(=O)O [Example 49, (S)-2-(Tert-butoxy)-2-(4-(4-chlorophenyl)-1-(cyclopentylmethyl)-2,3,6-trimethyl-1H-pyrrolo[2,3-b]pyridin-5-yl)acetic acid] | 15.3 |
| Cc1nc2c(c(C)c(C)n2CC2CCCCC2)c(-c2ccc(Cl)cc2)c1[C@H](OC(C)(C)C)C(=O)O [Example 50, (S)-2-(Tert-butoxy)-2-(4-(4-chlorophenyl)-1-(cyclohexylmethyl)-2,3,6-trimethyl-1H-pyrrolo[2,3-b]pyridin-5-yl)acetic acid] | 10.32 |
| Cc1nc2c(c(C)c(C)n2CC(=O)N(C)C)c(-c2ccc(Cl)cc2)c1[C@H](OC(C)(C)C)C(=O)O [Example 51, (S)-2-(Tert-butoxy)-2-(4-(4-chlorophenyl)-1-(2-(dimethylamino)-2-oxoethyl)-2,3,6-trimethyl-1H-pyrrolo[2,3-b]pyridin-5-yl)acetic acid] | 96.68 |
| Cc1nc2c(c(C)c(C)n2CC2(O)CC2)c(-c2ccc(Cl)cc2)c1[C@H](OC(C)(C)C)C(=O)O [Example 52] | 34.33 |
| Cc1nc2c(c(C)c(C)n2Cc2cccnc2)c(-c2ccc(Cl)cc2)c1[C@H](OC(C)(C)C)C(=O)O [Example 53, (S)-2-(Tert-butoxy)-2-(4-(4-chlorophenyl)-2,3,6-trimethyl-1-(pyridin-3-ylmethyl)-1H-pyrrolo[2,3-b]pyridin-5-yl)acetic acid] | 53.33 |
| Cc1nc2c(c(C)c(C)n2CCF)c(-c2ccc(Cl)cc2)c1[C@H](OC(C)(C)C)C(=O)O [Example 54, (S)-2-(Tert-butoxy)-2-(4-(4-chlorophenyl)-1-(2-fluoroethyl)-2,3,6-trimethyl-1H-pyrrolo[2,3-b]pyridin-5-yl)acetic acid] | 18.82 |
| Cc1nc2c(c(C)c(C)n2Cc2cncnc2)c(-c2ccc(Cl)cc2)c1[C@H](OC(C)(C)C)C(=O)O [Example 55, (S)-2-(Tert-butoxy)-2-(4-(4-chlorophenyl)-2,3,6-trimethyl-1-(pyrimidin-5-ylmethyl)-1H-pyrrolo[2,3-b]pyridin-5-yl)acetic acid] | 64.73 |
| Cc1nc2c(c(C)c(C)n2Cc2cocn2)c(-c2ccc(Cl)cc2)c1[C@H](OC(C)(C)C)C(=O)O [Example 56, (S)-2-(Tert-butoxy)-2-(4-(4-chlorophenyl)-2,3,6-trimethyl-1-(oxazol-4-ylmethyl)-1H-pyrrolo[2,3-b]pyridin-5-yl)acetic acid] | 24.56 |
